Where two headings read alike, the source gives them in different places.
Key:
[1] = system: estrogen receptor (ER); assay: Uterine estrogen receptor levels, hydroxyapatite assay (Example 8); format: in vivo, female Sprague-Dawley rats; details: run A
Protocol: A second group of animals was similarly treated with corn oil, TCDD, MCDF, or TCDD plus MCDF, all administered in corn oil at 10 ml/kg and terminated 72 hours later.
The animals were terminated by cervical dislocation. Livers were perfused with ice-cold TEDG buffer (10 mM Tris-HCl, 1.5 mM EDTA-4Na, 1 mM dithiothreitol, 10% glycerol (v/v), pH 7.4). Following perfusion in situ, livers were removed, weighed, and homogenized in ice-cold TEDG buffer. Uteri were also removed, weighed, and homogenized in ice-cold buffer. The homogenates were then centrifuged at 800×g ([…]) for 15 minutes and the nuclear pellets were stored at -80° C. The supernatants were further centrifuged at 180,000× g for 1.5 hours. The cytosolic supernatant was also stored at -80° C. Estrogen and progesterone receptor levels were determined within 7 days.
Estrogen (ER) and progesterone (PR) receptor levels were determined by the hydroxyapatite assay as described by Clark et al. (J. Steroid Biochem. 16:323-328, 1982) and incorporated herein by reference. […] Following the incubations, samples were counted and specific binding was calculated by subtraction of nonspecific from total binding. Assuming one steroid molecule binds to one estrogen/progesterone receptor, the number of moles of receptor can be calculated given the specific activity of the radioligand. The data presented in Tables 1 through 6 are means ± SD using at least four animals per treatment group. Significant differences were determined by analysis of variance.

[2] = system: uterus; assay: Uterine wet weights in mice (summary); format: in vivo; details: in comparison to control
[3] = system: AHH and EROD induction; details: previous studies; cited from earlier work
[4] = system: MDA-MB-231 cell line; details: cited from earlier work
[5] = 150 μmol/kg + E-2 (2 × 10 μg/rat)
[6] = compound alone, 150 μmol/kg (17β-estradiol: 2 × 10 μg/rat)

SMILES	Estrogen Receptor Levels, Cytosolic [1, 5] [fmol/mg protein]	Estrogen Receptor Levels, Nuclear [1, 5] [fmol/mg protein]	Estrogen Receptor Levels, Cytosolic [1, 6] [fmol/mg protein]	Estrogen Receptor Levels, Nuclear [1, 6] [fmol/mg protein]	uterine wet weights [2]	antagonist to the activities of TCDD [3]	secretion of the 34-, 52- and 160-kDa proteins ([4]; TCDD plus 17β-estradiol)	secretion of the 34-, 52- and 160-kDa proteins ([4]; compound alone)
Cc1cc(Cl)cc2c1oc1cc(Cl)cc(Cl)c12 [MCDF, 6-methyl 1,3,8-trichlorodibenzofuran]	78.9 ± 79.1	43.3 ± 73.4	55.1 ± 0.9	49.3 ± 10.2	decreases	antagonist		
Clc1cc2c(cc1Cl)Oc1cc(Cl)c(Cl)cc1O2 [TCDD, 2,3,7,8-tetrachloridibenzo-p-dioxin]							did not affect	did not affect
